Active and inactive are the calls of the source. No cut-off for these calls is given here.

Experiment [1] has as its system Salmonella enterica subsp. enterica serovar Gallinarum. Kind of experiment: Antimicrobial activity against Salmonella gallinarum ATCC 9184 at 100 ug/ml by agar-dilution streak method. It is filed as functional, organism-based.
Experiment [2] deals with Klebsiella pneumoniae. Kind of experiment: Antimicrobial activity against Klebsiella pneumoniae ATCC 10031 at 100 ug/ml by agar-dilution streak method. It counts as functional, organism-based.
The next experiment has as its system Staphylococcus aureus. In words: Antimicrobial activity against Staphylococcus aureus ATCC 13709 by agar-dilution streak method. It is filed as functional.
The subject of experiment [3] is Escherichia coli. Kind of experiment: Antimicrobial activity against Escherichia coli ATCC 9637 at 100 ug/ml by agar-dilution streak method. It counts as functional, organism-based.
Experiment [4] deals with Candida albicans. Kind of experiment: Antimicrobial activity against Candida albicans ATCC 10231 at 100 ug/ml by agar-dilution streak method. It counts as functional, organism-based.
In experiment [5] the test system is Mycolicibacterium smegmatis. In words: Antimicrobial activity against Mycobacterium smegmatis ATCC 607 by agar-dilution streak method. It counts as functional.
A further experiment deals with Pseudomonas aeruginosa. In words: Antimicrobial activity against Pseudomonas aeruginosa ATCC 27853 at 100 ug/ml by agar-dilution streak method. It is filed as functional, organism-based.
Experiment [6] deals with Candida albicans. Kind of experiment: Antimicrobial activity against Candida albicans ATCC 10231 by agar-dilution streak method. It counts as functional.
Experiment [7] deals with Salmonella enterica subsp. enterica serovar Gallinarum. In words: Antimicrobial activity against Salmonella gallinarum ATCC 9184 by agar-dilution streak method. It counts as functional.
Experiment [8] relates to Escherichia coli. Kind of experiment: Antimicrobial activity against Escherichia coli ATCC 9637 by agar-dilution streak method. It counts as functional.
The subject of experiment [9] is Klebsiella pneumoniae. In words: Antimicrobial activity against Klebsiella pneumoniae ATCC 10031 by agar-dilution streak method. It is filed as functional.

With `Cc1cc(O)cc2oc3cc(O)c4c(c3c12)C(O)OC4=O` (stereo not given) [ALECTOSARMENTIN], the outcome (in experiment [1]; with Klebsiella pneumoniae [2]; in the experiment with Escherichia coli [3]; in the experiment with Candida albicans [4]; in the experiment with Pseudomonas aeruginosa) was inactive. The Activity (with Staphylococcus aureus; in experiment [5]) was 25 µg/mL in each case.
In the case of `CCCCCc1cc2cc(O)cc(Oc3c(O)cc(O)c4c3CC(CCCCC)(OCC)OC4=O)c2c(=O)o1` (stereo not given), the outcome (in experiment [1]; in the experiment with Klebsiella pneumoniae [2]; in the experiment with Escherichia coli [3]; in the experiment on Pseudomonas aeruginosa) was inactive. Also, the Activity with Staphylococcus aureus worked out at 50 µg/mL; in the experiment on Candida albicans [6], 100 µg/mL; in [5], 50 µg/mL.
`CN[C@@H]1[C@H](O[C@H]2[C@H](O[C@H]3[C@H](O)[C@@H](O)[C@H](N=C(N)N)[C@@H](O)[C@@H]3N=C(N)N)O[C@@H](C)[C@]2(O)C=O)O[C@@H](CO)[C@H](O)[C@H]1O.CN[C@@H]1[C@H](O[C@H]2[C@H](O[C@H]3[C@H](O)[C@@H](O)[C@H](N=C(N)N)[C@@H](O)[C@@H]3N=C(N)N)O[C@@H](C)[C@]2(O)C=O)O[C@@H](CO)[C@H](O)[C@H]1O.O=S(=O)(O)O.O=S(=O)(O)O.O=S(=O)(O)O` [STREPTOMYCIN SULFATE]: the Activity in the experiment with Staphylococcus aureus stood at 5 µg/mL; in experiment [7], 50 µg/mL; in the experiment with Escherichia coli [8] it was 5 µg/mL; in experiment [5], 1.25 µg/mL; in the experiment with Klebsiella pneumoniae [9], 2.5 µg/mL. Further, the result in the experiment with Candida albicans [4] and in the experiment with Pseudomonas aeruginosa was inactive.
With `CC(=O)C1=C(O)C=C2Oc3c(C(C)=O)c(O)c(C)c(O)c3[C@]2(C)C1=O` [(-)-USNIC ACID], the result (in [1]; in the experiment on Klebsiella pneumoniae [2]; with Escherichia coli [3]; in the experiment with Pseudomonas aeruginosa) was inactive. In addition, the Activity is 25 µg/mL with Staphylococcus aureus, 50 µg/mL with Candida albicans [6] and 6.25 µg/mL in [5].
For the compound `CCCCCC(=O)Cc1cc(O)cc2c1C(=O)Oc1cc(O)c(C(=O)O)c(CCCCC)c1O2` [PHYSODIC ACID], the result (in [1]; in the experiment with Klebsiella pneumoniae [2]; in the experiment with Escherichia coli [3]; in the experiment with Candida albicans [4]; with Pseudomonas aeruginosa) was inactive. Also, the Activity was 25 µg/mL with Staphylococcus aureus and 100 µg/mL in [5].

Values taken from ChEMBL document CHEMBL1148043, “Alectosarmentin, a new antimicrobial dibenzofuranoid lactol from the lichen, Alectoria sarmentosa” (1994).
